Columns and labels:
[1] = target: T1, Human Indoleamine 2,3-dioxygenase (IDO) (Homo sapiens, UniProt P14902); assay: Human IDO enzymatic assay (kynurenine level); type: biochemical; details: 6 nM IDO, 10 μM L-Trp; geometric mean; read-out: IDO1 GMean: IC50 (μM) (Biochemical Assay)
T1 construct: His tag (N); made in house; host or cells: E. coli
How it was run: (§1)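 N-terminally His-tagged enzymes expressed in E. coli were run in 50 mM sodium phosphate pH 6.5 with 10 mM ascorbate, catalase and Tween 20. IDO: 6 nM enzyme, 10 μM L-Trp, 5 μM methylene blue, 20 min RT. TDO: 1 nM enzyme, 350 μM L-Trp, 0.4 μM methylene blue, 70 min RT.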

[2] = target: T2, human TDO (TDO-expressing HEK293 cells) (Homo sapiens, UniProt P48775); assay: Cell based kynurenine assay, TDO-expressing HEK293 cell clones; details: TDO-expressing HEK293 cells, 24 hours incubation; geometric mean; read-out: HEK293 TDO Kynurenine GMean IC50 (μM) (Cellular Assay)
T2 construct: expressed in transfected cells
How it was run: (§2)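 HEK293 clones stably expressing human IDO1 or human TDO (CMV promoter), 2.5×10^4 cells/well, given serial compound dilutions for 24 h. Kynurenine measured in supernatant; inhibition relative to cell/0.2% DMSO and media-only controls. IC50 by nonlinear regression.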

[3] = target: T3, Human Tryptophan 2,3-dioxygenase (TDO) (Homo sapiens, UniProt P48775); assay: Human TDO enzymatic assay (kynurenine level); type: biochemical; details: 1 nM TDO, 350 μM L-Trp; geometric mean; read-out: TDO GMean: IC50 (μM) (Biochemical Assay)
T3 construct: His tag (N); made in house; host or cells: E. coli
How it was run: as §1

[4] = target: T4, human IDO (IDO1-expressing HEK293 cells) (Homo sapiens, UniProt P14902); assay: Cell based kynurenine assay, IDO1-expressing HEK293 cell clones; details: IDO1-expressing HEK293 cells, 24 hours incubation; geometric mean; read-out: HEK293 IDO1 Kynurenine GMean IC50 (μM) (Cellular Assay)
T4 construct: expressed in transfected cells
How it was run: as §2

T4 sequence (P14902 whole entry): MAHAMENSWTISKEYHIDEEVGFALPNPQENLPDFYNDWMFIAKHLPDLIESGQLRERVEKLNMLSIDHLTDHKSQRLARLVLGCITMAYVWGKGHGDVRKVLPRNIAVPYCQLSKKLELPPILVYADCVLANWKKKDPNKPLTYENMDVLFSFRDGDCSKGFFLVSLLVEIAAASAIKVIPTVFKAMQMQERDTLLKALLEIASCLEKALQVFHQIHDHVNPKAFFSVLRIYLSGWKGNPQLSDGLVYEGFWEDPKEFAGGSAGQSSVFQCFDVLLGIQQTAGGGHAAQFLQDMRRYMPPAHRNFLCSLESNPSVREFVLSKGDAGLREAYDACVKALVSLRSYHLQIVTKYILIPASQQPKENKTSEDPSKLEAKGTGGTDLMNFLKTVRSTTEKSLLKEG
T1 sequence (P14902 whole entry): as above
T3 sequence (P48775 whole entry): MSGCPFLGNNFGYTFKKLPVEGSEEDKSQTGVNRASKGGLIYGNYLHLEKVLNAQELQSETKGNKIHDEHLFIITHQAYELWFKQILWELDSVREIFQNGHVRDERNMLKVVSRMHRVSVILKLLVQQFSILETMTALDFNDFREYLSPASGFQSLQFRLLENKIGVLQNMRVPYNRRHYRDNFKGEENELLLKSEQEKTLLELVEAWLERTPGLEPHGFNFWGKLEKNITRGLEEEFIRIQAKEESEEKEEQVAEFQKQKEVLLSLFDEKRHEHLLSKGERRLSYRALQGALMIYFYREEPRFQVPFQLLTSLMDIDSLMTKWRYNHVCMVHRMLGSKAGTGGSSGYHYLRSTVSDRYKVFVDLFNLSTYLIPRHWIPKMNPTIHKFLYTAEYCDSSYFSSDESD
T2 sequence (P48775 whole entry): as above

IC50 [1] [µM] | IC50 [2] [µM] | IC50 [3] [µM] | IC50 [4] [µM] | SMILES
0.0001 to 10 | 0.0001 to 10 | 0.0001 to 10 | 0.0001 to 10 | Cc1ccc2cn[nH]c2c1C(O)C(C)(C)C1CCOCC1 (stereo not drawn) [Compound P-0234, 2-methyl-1-(6-methyl-1H-indazol-7-yl)-2-(tetrahydro-2H-pyran-4-yl)propan-1-ol]
0.0001 to 10 | 0.0001 to 10 | 0.0001 to 10 | 0.0001 to 10 | OC(c1c(F)c(Cl)cc2cn[nH]c12)C1(C2CCOCC2)CC1 (stereo not drawn) [Compound P-0235, (5-chloro-6-fluoro-1H-indazol-7-yl)(1-(tetrahydro-2H-pyran-4-yl)cyclopropyl)methanol]
0.0001 to 10 | 0.0001 to 10 | 0.0001 to 10 | 0.0001 to 10 | CC1(C(O)c2cc(Cl)cc3cn[nH]c23)CCOCC1 (stereo not drawn) [Compound P-0236, (5-chloro-1H-indazol-7-yl)(4-methyltetrahydro-2H-pyran-4-yl)methanol]
0.0001 to 10 | 0.0001 to 10 | 0.0001 to 10 | 0.0001 to 10 | OC(c1c(Cl)c(Cl)cc2cn[nH]c12)C1CCC1 (stereo not drawn) [Compound P-0237, cyclobutyl(5,6-dichloro-1H-indazol-7-yl)methanol]
0.0001 to 10 | 0.0001 to 10 | 0.0001 to 10 | 0.0001 to 10 | OC(c1c(Cl)c(Cl)cc2cn[nH]c12)C1(C2CCCCC2)CC1 (stereo not drawn) [Compound P-0238, (1-cyclohexylcyclopropyl)(5,6-dichloro-1H-indazol-7-yl)methanol]
0.0001 to 10 | 0.0001 to 10 | 0.0001 to 10 | 0.0001 to 10 | CC(C)(C)C(O)c1c(Cl)c(Cl)cc2cn[nH]c12 (stereo not drawn) [Compound P-0239, 1-(5,6-dichloro-1H-indazol-7-yl)-2,2-dimethylpropan-1-ol]
0.0001 to 10 | 0.0001 to 10 | 0.0001 to 10 | 0.0001 to 10 | OC(c1cc(Cl)cc2cn[nH]c12)C1CC2CCC1C2 (stereo not drawn) [Compound P-0240, bicyclo[2.2.1]heptan-2-yl(5-chloro-1H-indazol-7-yl)methanol]
0.0001 to 10 | 0.0001 to 10 | 0.0001 to 10 | 0.0001 to 10 | CC1(C)OC(C)(C)C12CC(O)(c1cc(Cl)cc3cn[nH]c13)C2 [Compound P-0243, 6-(5-chloro-1H-indazol-7-yl)-1,1,3,3-tetramethyl-2-oxaspiro[3.3]heptan-6-ol]
0.0001 to 10 | 0.0001 to 10 | 0.0001 to 10 | 0.0001 to 10 | [2H]C(O)(c1cc(Cl)cc2cn[nH]c12)C(C)(C)C1CCOCC1 (stereo not drawn) [Compound P-0244, 1-(5-chloro-1H-indazol-7-yl)-2-methyl-2-(tetrahydro-2H-pyran-4-yl)propan-1-d-1-ol]
0.0001 to 10 | 0.0001 to 10 | 0.0001 to 10 | 0.0001 to 10 | OC(c1c(F)c(Cl)c(F)c2cn[nH]c12)C1CCC1 (stereo not drawn) [Compound P-0246, (5-chloro-4,6-difluoro-1H-indazol-7-yl)(cyclobutyl)methanol]
0.0001 to 10 | 0.0001 to 10 | 0.0001 to 10 | 0.0001 to 10 | OC(c1c(F)c(Cl)c(F)c2cn[nH]c12)C1(C2CCCCC2)CC1 (stereo not drawn) [Compound P-0247, (5-chloro-4,6-difluoro-1H-indazol-7-yl)(1-cyclohexylcyclopropyl)methanol]
0.0001 to 10 | > 10 | 0.0001 to 10 | 0.0001 to 10 | CC(C)(C)C(O)c1c(F)c(Cl)c(F)c2cn[nH]c12 (stereo not drawn) [Compound P-0248, 1-(5-chloro-4,6-difluoro-1H-indazol-7-yl)-2,2-dimethylpropan-1-ol]
0.0001 to 10 | > 10 | 0.0001 to 10 | 0.0001 to 10 | OC1(c2c(F)c(Cl)c(F)c3cn[nH]c23)CC2(C1)C1CCCC2CCC1 (stereo not drawn) [Compound P-0249, (1s,5s)-3′-(5-chloro-4,6-difluoro-1H-indazol-7-yl)spiro[bicyclo[3.3.1]nonane-9,1′-cyclobutan]-3′-ol]
0.0001 to 10 | 0.0001 to 10 | 0.0001 to 10 | 0.0001 to 10 | CC(C)(C(O)c1cc(Cl)cc2cn[nH]c12)C(F)(F)F (stereo not drawn) [Compound P-0250, 1-(5-chloro-1H-indazol-7-yl)-3,3,3-trifluoro-2,2-dimethylpropan-1-ol]
0.0001 to 10 | 0.0001 to 10 | 0.0001 to 10 | 0.0001 to 10 | CC(C)(C1CCC1)C(O)c1c(F)c(Cl)c(F)c2cn[nH]c12 (stereo not drawn) [Compound P-0251, 1-(5-chloro-4,6-difluoro-1H-indazol-7-yl)-2-cyclobutyl-2-methylpropan-1-ol]
0.0001 to 10 | > 10 | 0.0001 to 10 | 0.0001 to 10 | CC(C)(C1CCCC1)C(O)c1c(F)c(Cl)c(F)c2cn[nH]c12 (stereo not drawn) [Compound P-0252, 1-(5-chloro-4,6-difluoro-1H-indazol-7-yl)-2-cyclopentyl-2-methylpropan-1-ol]
0.0001 to 10 | 0.0001 to 10 | 0.0001 to 10 | 0.0001 to 10 | CC(C)(C1CCCCC1)C(O)c1c(F)c(Cl)c(F)c2cn[nH]c12 (stereo not drawn) [Compound P-0253, 1-(5-chloro-4,6-difluoro-1H-indazol-7-yl)-2-cyclohexyl-2-methylpropan-1-ol]
0.0001 to 10 | 0.0001 to 10 | 0.0001 to 10 | 0.0001 to 10 | CC(C)(CC1CCOCC1)C(O)c1cc(Cl)cc2cn[nH]c12 (stereo not drawn) [Compound P-0254, 1-(5-chloro-1H-indazol-7-yl)-2,2-dimethyl-3-(tetrahydro-2H-pyran-4-yl)propan-1-ol]
0.0001 to 10 | 0.0001 to 10 | 0.0001 to 10 | 0.0001 to 10 | CCC(C)(CC)C(O)c1cc(Cl)cc2cn[nH]c12 (stereo not drawn) [Compound P-0255, 1-(5-chloro-1H-indazol-7-yl)-2-ethyl-2-methylbutan-1-ol]
0.0001 to 10 | 0.0001 to 10 | 0.0001 to 10 | 0.0001 to 10 | CCC(CC)(CCC#N)C(O)c1cc(Cl)cc2cn[nH]c12 (stereo not drawn) [Compound P-0256, 4-((5-chloro-1H-indazol-7-yl)(hydroxy)methyl)-4-ethylhexanenitrile]
0.0001 to 10 | 0.0001 to 10 | 0.0001 to 10 | 0.0001 to 10 | OC(c1c(F)c(Cl)cc2cn[nH]c12)C12CC3CC(CC(C3)C1)C2 [Compound P-0257, ((1S,3s)-adamantan-1-yl)(5-chloro-6-fluoro-1H-indazol-7-yl)methanol]
0.0001 to 10 | 0.0001 to 10 | 0.0001 to 10 | 0.0001 to 10 | OC(c1c(F)c(Cl)cc2cn[nH]c12)C1CC2CCC1C2 (stereo not drawn) [Compound P-0258, bicyclo[2.2.1]heptan-2-yl(5-chloro-6-fluoro-1H-indazol-7-yl)methanol]
0.0001 to 10 | 0.0001 to 10 | 0.0001 to 10 | 0.0001 to 10 | CC(C1CC1)(C1CC1)C(O)c1cc(Cl)cc2cn[nH]c12 (stereo not drawn) [Compound P-0259, 1-(5-chloro-1H-indazol-7-yl)-2,2-dicyclopropylpropan-1-ol]
0.0001 to 10 | 0.0001 to 10 | 0.0001 to 10 | 0.0001 to 10 | CC(C1CC1)(C1CC1)C(O)c1c(F)c(Cl)cc2cn[nH]c12 (stereo not drawn) [Compound P-0260, 1-(5-chloro-6-fluoro-1H-indazol-7-yl)-2,2-dicyclopropylpropan-1-ol]
0.0001 to 10 | 0.0001 to 10 | 0.0001 to 10 | 0.0001 to 10 | CC(C)(C1CCN(S(C)(=O)=O)CC1)C(O)c1c(F)c(Cl)cc2cn[nH]c12 (stereo not drawn) [Compound P-0261, 1-(5-chloro-6-fluoro-1H-indazol-7-yl)-2-methyl-2-(1-(methylsulfonyl)piperidin-4-yl)propan-1-ol]
0.0001 to 10 | 0.0001 to 10 | 0.0001 to 10 | 0.0001 to 10 | OC(c1c(F)c(Cl)cc2cn[nH]c12)C(F)(F)C1CCOCC1 (stereo not drawn) [Compound P-0262, 1-(5-chloro-6-fluoro-1H-indazol-7-yl)-2,2-difluoro-2-(tetrahydro-2H-pyran-4-yl)ethan-1-ol]
0.0001 to 10 | 0.0001 to 10 | 0.0001 to 10 | 0.0001 to 10 | CC1(C(O)c2cc(Br)cc3cn[nH]c23)CCCCC1 (stereo not drawn) [Compound P-0263, (5-bromo-1H-indazol-7-yl)(1-methylcyclohexyl)methanol]
0.0001 to 10 | > 10 | 0.0001 to 10 | 0.0001 to 10 | CC1(C(O)c2c(F)c(Cl)c(F)c3cn[nH]c23)CCC1 (stereo not drawn) [Compound P-0264, (5-chloro-4,6-difluoro-1H-indazol-7-yl)(1-methylcyclobutyl)methanol]
0.0001 to 10 | 0.0001 to 10 | 0.0001 to 10 | 0.0001 to 10 | OC(c1c(F)c(Cl)c(F)c2cn[nH]c12)C1(C(F)(F)F)CCC1 (stereo not drawn) [Compound P-0265, (5-chloro-4,6-difluoro-1H-indazol-7-yl)(1-(trifluoromethyl)cyclobutyl)methanol]
0.0001 to 10 | > 10 | 0.0001 to 10 | > 10 | O=S(=O)(c1ccccc1)C1(C(O)c2cc(Cl)cc3cn[nH]c23)CC1 (stereo not drawn) [Compound P-0266, (5-chloro-1H-indazol-7-yl)(1-(phenylsulfonyl)cyclopropyl)methanol]
